Numbered stars: 1 amine (or outer) side, 2 acyl side, 3 side chain; on linkers, the order of the positions; unused ones are H or OH. Square brackets hold non-standard residues; d marks the D form. Peptide text beside a SMILES is read from it. * marks the point of attachment. X4 = O=C([C@@H]1Cc2ccc(OP(=O)(O)O)cc2CN1[*:1])[*:2]; pY = N[C@@H](Cc1ccc(OP(=O)(O)O)cc1)C(=O)O; X7 = O=C(Cc1c[nH]c2ccc(OP(=O)(O)O)cc12)*; aThr = C[C@H](O)[C@H](N)C(=O)O
Molecular target: Signal transducer and activator of transcription 3 (Homo sapiens, UniProt P40763)
Assay: Inhibition of Stat3 by fluorescence polarization assay

Sequence of Signal transducer and activator of transcription 3 (P40763 whole entry): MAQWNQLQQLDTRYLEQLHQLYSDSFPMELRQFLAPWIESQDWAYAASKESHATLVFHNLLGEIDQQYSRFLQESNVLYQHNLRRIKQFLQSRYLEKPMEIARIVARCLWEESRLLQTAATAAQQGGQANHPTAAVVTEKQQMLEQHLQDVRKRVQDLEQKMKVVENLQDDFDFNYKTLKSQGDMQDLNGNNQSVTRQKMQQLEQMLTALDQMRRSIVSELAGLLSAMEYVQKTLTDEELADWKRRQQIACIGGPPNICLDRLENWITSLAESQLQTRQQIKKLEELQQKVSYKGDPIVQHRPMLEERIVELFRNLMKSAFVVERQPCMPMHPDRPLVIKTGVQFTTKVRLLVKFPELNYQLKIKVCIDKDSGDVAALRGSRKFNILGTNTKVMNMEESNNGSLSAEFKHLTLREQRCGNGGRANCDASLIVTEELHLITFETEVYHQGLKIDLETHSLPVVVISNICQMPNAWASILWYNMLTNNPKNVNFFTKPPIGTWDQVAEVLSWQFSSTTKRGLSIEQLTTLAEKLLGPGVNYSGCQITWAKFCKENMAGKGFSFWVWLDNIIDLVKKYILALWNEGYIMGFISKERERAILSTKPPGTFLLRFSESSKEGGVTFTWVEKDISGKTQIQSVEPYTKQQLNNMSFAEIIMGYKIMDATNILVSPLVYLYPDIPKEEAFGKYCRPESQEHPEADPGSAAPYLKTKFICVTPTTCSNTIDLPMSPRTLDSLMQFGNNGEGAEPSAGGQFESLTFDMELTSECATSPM

SMILES | IC50
NC(=O)CC[C@H](NC(=O)[C@@H]1Cc2cccc3c2N1C(=O)[C@@H](NC(=O)c1cc2cc(OP(=O)(O)O)ccc2[nH]1)CC3)C(=O)NCc1ccccc1 | 190 nM
C[S+]([O-])CC[C@H](NC(=O)[C@@H]1Cc2cccc3c2N1C(=O)[C@@H](NC(=O)/C=C/c1ccc(OP(=O)(O)O)cc1)CC3)C(N)=O (some centres not stated) | 7600 nM
CS(=O)(=O)CC[C@H](NC(=O)[C@@H]1Cc2cccc3c2N1C(=O)[C@@H](NC(=O)/C=C/c1ccc(OP(=O)(O)O)cc1)CC3)C(N)=O | 7030 nM
CNC(=O)[C@H](CCC(N)=O)NC(=O)[C@@H]1Cc2cccc3c2N1C(=O)[C@@H](NC(=O)/C=C/c1ccc(OP(=O)(O)O)cc1)CC3 | 269 nM
COC(=O)[C@H](CCC(N)=O)NC(=O)[C@@H]1Cc2cccc3c2N1C(=O)[C@@H](NC(=O)/C=C/c1ccc(OP(=O)(O)O)cc1)CC3 | 141 nM
NC(=O)CC[C@H](NC(=O)[C@@H]1CC[C@H]2CC[C@H](NC(=O)/C=C/c3ccc(OP(=O)(O)O)cc3)C(=O)N21)C(=O)NCc1ccccc1 | 45700 nM
NC(=O)[C@@H]1Cc2cccc3c2N1C(=O)[C@@H](NC(=O)/C=C/c1ccc(OP(=O)(O)O)cc1)CC3 | 35600 nM
CC(=O)N1Cc2cc(OP(=O)(O)O)ccc2C[C@H]1C(=O)N[C@@H](CC(C)C)C(=O)N1CCC[C@H]1C(=O)N[C@@H](CCC(N)=O)C(=O)N[C@H](C(N)=O)[C@@H](C)O (Ac-[X4]LPQT-NH2) | > 100000 nM
CCCC[C@H](NC(=O)[C@@H]1Cc2cccc3c2N1C(=O)[C@@H](NC(=O)/C=C/c1ccc(OP(=O)(O)O)cc1)CC3)C(N)=O | 19200 nM
CC(C)C[C@H](NC(=O)/C=C/c1ccc(OP(=O)(O)O)cc1)C(=O)N1CCC[C@H]1C(=O)N[C@@H](CCC(N)=O)C(=O)NCc1ccccc1 | 138 nM
NC(=O)CC[C@H](NC(=O)[C@@H]1Cc2cccc3c2N1C(=O)[C@@H](NC(=O)/C=C/c1ccc(OP(=O)(O)O)cc1)CC3)C(=O)NCc1ccccc1 | 162 nM
NC(=O)CC[C@H](NC(=O)[C@@H]1Cc2cccc3c2N1C(=O)[C@@H](NC(=O)/C=C/c1ccc(OP(=O)(O)O)cc1)CC3)C(N)=O | 233 nM
NC(=O)C1CCN(C(=O)[C@@H]2Cc3cccc4c3N2C(=O)[C@@H](NC(=O)/C=C/c2ccc(OP(=O)(O)O)cc2)CC4)C1 (some centres not stated) | 595 nM
CC(C)NC(=O)[C@H](CCC(N)=O)NC(=O)[C@@H]1Cc2cccc3c2N1C(=O)[C@@H](NC(=O)/C=C/c1ccc(OP(=O)(O)O)cc1)CC3 | 305 nM
NC(=O)CC[C@H](NC(=O)[C@@H]1Cc2cccc3c2N1C(=O)[C@@H](NC(=O)/C=C/c1ccc(OP(=O)(O)O)cc1)CC3)C(=O)O | 359 nM
NC(=O)CC[C@H](NC(=O)[C@@H]1CC[C@@H]2CC[C@H](NC(=O)/C=C/c3ccc(OP(=O)(O)O)cc3)C(=O)N21)C(=O)NCc1ccccc1 | 604 nM
CC(=O)N[C@@H](Cc1ccc(OP(=O)(O)O)cc1)C(=O)N[C@@H](CC(C)C)C(=O)N1CCC[C@H]1C(=O)N[C@@H](CCC(N)=O)C(=O)N[C@H](C(N)=O)[C@H](C)O (Ac-[pY]LPQ[aThr]-NH2) | 739 nM
NC(=O)CC[C@H](NC(=O)[C@H]1CC[C@H]2CC[C@H](NC(=O)/C=C/c3ccc(OP(=O)(O)O)cc3)C(=O)N21)C(=O)NCc1ccccc1 | 59800 nM
CC(C)C[C@H](NC(=O)Cc1c[nH]c2ccc(OP(=O)(O)O)cc12)C(=O)N1CCC[C@H]1C(=O)N[C@@H](CCC(N)=O)C(=O)N[C@H](C(N)=O)[C@@H](C)O (X7-LPQT-NH2) | > 100000 nM
O=C(O)CCCNC(=O)[C@@H]1Cc2cccc3c2N1C(=O)[C@@H](NC(=O)/C=C/c1ccc(OP(=O)(O)O)cc1)CC3 | 815 nM
NC(=O)CC[C@H](NC(=O)[C@@H]1Cc2cccc3c2N1C(=O)[C@@H](NC(=O)/C=C/c1ccc(OP(=O)(O)O)cc1)C=C3)C(=O)NCc1ccccc1 | 195 nM
C[C@H](NC(=O)[C@@H]1Cc2cccc3c2N1C(=O)[C@@H](NC(=O)/C=C/c1ccc(OP(=O)(O)O)cc1)CC3)C(N)=O | 25100 nM

Reference: ChEMBL document CHEMBL1153822, “Conformationally constrained peptidomimetic inhibitors of signal transducer and activator of transcription. 3: Evaluation and molecular modeling” (J Med Chem, 2009)
